According to patent US6610674B1, “Method of treating inflammatory conditions with progesterone analogs” (University of Pennsylvania, priority 1999, dated 2003):
Several values for one entry are separate records, joined by “and”; a condition that tells them apart may be missing. Identical values can stand only once.

Columns and labels:
[1] = system: lymphocytes infiltrating the large bowel lamina propria; test: scid mouse model of Inflammatory Bowel Disease: lymphocytes infiltrating the large bowel lamina propria; format: in vivo, scid C.B.-17 mice; settings: for effect on lymphocyte infiltration into the bowel (in words): compared to buffer control; for effect on lymphocyte infiltration into the bowel (in words) / CD4+ Lymphocytes, Average / CD4+ as a percent of total Lymphocytes, Average / Total Lymphocytes, Average: 25 mg/kg orally each day; for CD4+ Lymphocytes, Average / CD4+ as a percent of total Lymphocytes, Average / Total Lymphocytes, Average: group average; for CD4+ Lymphocytes / CD4+ as a percent of total Lymphocytes / Total Lymphocytes: individual mouse, 25 mg/kg orally each day until sacrifice, lamina propria, 25 mg/kg
Description: The scid (severe combined immunodeficient) C.B.-17 line of mice provide an effective model of Inflammatory Bowel Disease. The disease state in these mice is triggered by the intraperitoneal injection of CD4+ T cells from a normal BALB/C mouse. The induced disease is characterized by intestinal inflammation in the large intestine, leukocytic infiltrates into the mucosa, submucosa, and mucularis, epithelial cell hyperplasia, loss of mucin-secreting cells, and ulcers with deep fissures, and diarrhea. In the mouse model, CD4+ T cells and macrophages infiltrate the bowel. The scid mouse is recognized by the art as a model for IBD. Powrie et al., Inhibition of Th1 Responses Prevents Inflammatory Bowel Disease in scid Mice Reconstituted with CD45RBhi CD4+ T Cells, Immunity 1:553-562 (1994).
500,000 to 1×10^6 T cells derived from the lymph nodes of normal BALB/C mice were injected intraperitoneally into scid mice 6 weeks prior to sacrifice. 2 days before lymphocyte administration, treatment of the scid mice began with buffer control, medroxyprogesterone acetate, or 17-hydroxyprogesterone. The treatment mice (5 in each group) received 25 mg/kg of drug orally each day until sacrifice.
After sacrifice, lamina propria (bowel wall) lymphocytes were isolated from each animal. The total number of lymphocytes, number of CD4+ lymphocytes, and the percent of CD4+ lymphocytes was determined. CD4+ lymphocytes were identified by using a first antibody directed to CD4, and a second antibody directed to the first antibody. The second antibody was tagged with fluorescein, which lights up as green in a flow cytometer, identifying which lymphocytes are the CD4+ form. Lymphocyte infiltration into the bowel is a predictor of the progress of the disease because lymphocytes are involved in the inflammatory response leading to damage of the bowel wall.

[2] = system: Patients with mild to moderate ulcerative colitis; test: Treatment of patients with ulcerative colitis (Disease Activity Index); format: in vivo, human
Experimental: (§1) Patients with mild to moderate ulcerative colitis were evaluated for their response to treatment with medroxyprogesterone acetate. Patients in the treatment group (8 patients) received a loading dose of 1 gram of medroxyprogesterone acetate every 6 hours for 8 doses. These patients were then given 500 mg of medroxyprogesterone every 12 hours for 8 weeks.
Disease improvement was measured using the Disease Activity Index (DAI). The DAI is a total score for stool frequency, blood in the stool, the investigator's global assessment (IGA), and the physician's evaluation of the appearance of mucosa during flexible sigmoidoscopy of the colon.

[3] = system: Patients with mild to moderate Crohn's disease; test: Treatment of patients with Crohn's disease (CDAI); format: in vivo, human
Experimental: as §1, with “moderate Crohn's disease” for “moderate ulcerative colitis”, “with […]” for “with medroxyprogesterone”, “group (12” for “group (8”, “patients) recieved” for “patients) received”
Disease improvement was measured using the Crohn's Disease Activity Index (CDAI). The CDAI score for a patient was calculated by multiplying the numerical value for each variable by multiplication factor indicated for that variable, and totaling all of the resultant values, as shown in Table 5. A score below 150 indicated remission and a score above 450 indicated severe disease. In order to enter the study, patients were required to have a total CDAI score of 200 to 400 at baseline.
Disease remission was defined as a CDAI score of 150 or below. Disease response was defined as either a decrease of 70 or greater in the CDAI or disease remission.

[4] = system: IL-6 release from macrophages; test: IL-6 release (ELISA) from spleen macrophages of treated mice; format: cell-based, mouse
Experimental: The spleens of four of the mice from Example 1 were removed after the animals were sacrificed. Macrophages were isolated from the spleen of the medroxyprogesterone acetate or buffer control treated mice. IL-6 release from these macrophages was measured by ELISA following stimulation with rat anti-mouse macrophage Fc receptor antibody 2.4G2 and F(ab′)2 IgG goat anti-rat antibody. The effect of medroxyprogesterone acetate on IL-6 release is illustrated in Table 3.

[5] = system: TNF-α release from macrophages; test: TNF-α release (ELISA) from spleen macrophages of treated mice; format: cell-based, mouse
Experimental: The spleens of six of the mice from Example 1 were removed after the animals were sacrificed. Macrophages were isolated from the spleen of the medroxyprogesterone acetate or buffer control treated mice. TNF-α release from these macrophages was measured by ELISA following stimulation with either (1) rat anti-mouse macrophage Fc receptor antibody 2.4G2 and F(ab′)2 IgG goat anti-rat antibody, or (2) phorbol myristate acetate (“PMA”), a phorbol ester. The effect of medroxyprogesterone acetate on TNF-α release is illustrated in Table 2.

[6] = individual mouse, stimulation 2.4G2 and F(ab′)2 IgG anti-rat, listed as MPA

SMILES	effect on lymphocyte infiltration into the bowel (in words) [1]	CD4+ Lymphocytes, Average [1]	CD4+ as a percent of total Lymphocytes, Average [1]	Total Lymphocytes, Average [1]	CD4+ Lymphocytes [1]	CD4+ as a percent of total Lymphocytes [1]	Total Lymphocytes [1]	patients showing improvement with treatment ([2]; 8 weeks, 8 patients)	Improvement (reduction of one or more units in DAI score at end of study vs baseline) ([2]; individual patient, 1 g every 6 hours for 8 doses, then 500 mg every 12 hours for 8 weeks)	non-responders with reduction in symptoms and complaints during initial treatment ([2]; of the 3 patients who did not respond at end of 8 week study)	adverse event leading to drop out ([3]; 12 patients treated)	Remissions (CDAI score of 150 or below) ([3]; Completers (10 patients), 8 weeks)	IL-6 Measurement [4, 6]	effect on IL-6 release from macrophages (in words) ([4]; macrophages from treated mice)	TNF-α Measurement [5, 6]	TNF-α Repeat Measurement [5, 6]	TNF-α Repeat Measurement ([5]; individual mouse, stimulation PMA for Repeat Measurement)	effect on TNF-α release from macrophages (in words) ([5]; macrophages from treated mice)
CC(=O)[C@@]1(O)CC[C@H]2[C@@H]3CCC4=CC(=O)CC[C@]4(C)[C@H]3CC[C@@]21C [17-hydroxyprogesterone]	did not work in treating the mice	16.3 1 × 106	88.0%	18.4 1 × 106	8.9 1 × 106 and 1.6 1 × 106 and 15 1 × 106 and 23 1 × 106	89% and 81% and 93% and 91%	10 1 × 106 and 2 1 × 106 and 16.5 1 × 106 and 25.2 1 × 106	–	–	–	–	–	–	–	–	–	–	–
CC(=O)O[C@]1(C(C)=O)CC[C@H]2[C@@H]3C[C@H](C)C4=CC(=O)CC[C@]4(C)[C@H]3CC[C@@]21C [Medroxyprogesterone Acetate, pregn-4-ene-3,20-dione, 17-(acetyloxy)-6-methyl-, (6α)-]	effective in decreasing lymphocyte infiltration into the bowel	3.8 1 × 106	81.4%	4.5 1 × 106	1.6 1 × 106 and 4.1 1 × 106 and 1.3 1 × 106 and 3.0 1 × 106 and 9.2 1 × 106	81% and 87% and 65% and 83% and 91%	2 1 × 106 (2×) and 4.8 1 × 106 and 3.6 1 × 106 and 10.2 1 × 106	Five out of eight	Yes (5×) and No (3×)	2 patients	One patient dropped out for a minor adverse event (fatigue)	7	298,940 and 266,557	may be inhibiting IL-6 release from macrophages	2314 pg/mL and 27563 pg/mL and 1843 pg/mL	1026 pg/mL and 0 pg/mL	0 pg/mL	may be inhibiting TNF-α release from macrophages
